In one experiment the test system is MAC 15A cells. Description: In vitro activity against MAC 15A adenocarcinoma (MTT assay). It counts as cell-based. As to conditions: MAC15A colon adenocarcinoma, 96 hours continuous exposure. As to the method:
MAC 15A cells were grown in RPMI 1640 medium supplemented with 10% foetal calf serum containing a 1% antibiotic mixture under standard tissue culture conditions and were maintained at 37° C. in a humidified atmosphere of 5% CO2 in air. Cells were harvested from a stock culture in exponential growth phase and plated in 96-well flat-bottomed plates to achieve a final density of 2×10^3 cells per well. After 2 hours incubation medium was replaced with either fresh medium containing 0.5% DMSO (control) or medium containing test compound dissolved in DMSO at a concentrations from 10 mM to 1 nM. Chemosensitivity was assessed using MTT assay by the method of Plumb et al Cancer Research 49 (1989) 4435-4440.
Following 96 hours continuous exposure to drug at 37° C. cells were incubated with fresh drug-free medium immediately prior to addition of MTT solution (5 mg/ml). Medium and MTT were removed after 4 hours and 150 μl of DMSO was added. For each plate the absorbance of the resulting solution was measured at the analytical wavelength 550 nm for formnazan product, using a Labsystem Mutiskan. IC50 values were obtained from growth curves of drug concentration against % survival and are expressed in μm.
In vitro Cytotoxicity of Spacer Limked Anthraquinone Peptide Conjugates on MAC15A Colon Adenocarcinoma
A general note: Tetrazolium dyes change colour on reduction, which living cells bring about.

For the next experiment, the target named is T1, topo I (Homo sapiens, UniProt P11387).
T1 sequence (P11387 1-765): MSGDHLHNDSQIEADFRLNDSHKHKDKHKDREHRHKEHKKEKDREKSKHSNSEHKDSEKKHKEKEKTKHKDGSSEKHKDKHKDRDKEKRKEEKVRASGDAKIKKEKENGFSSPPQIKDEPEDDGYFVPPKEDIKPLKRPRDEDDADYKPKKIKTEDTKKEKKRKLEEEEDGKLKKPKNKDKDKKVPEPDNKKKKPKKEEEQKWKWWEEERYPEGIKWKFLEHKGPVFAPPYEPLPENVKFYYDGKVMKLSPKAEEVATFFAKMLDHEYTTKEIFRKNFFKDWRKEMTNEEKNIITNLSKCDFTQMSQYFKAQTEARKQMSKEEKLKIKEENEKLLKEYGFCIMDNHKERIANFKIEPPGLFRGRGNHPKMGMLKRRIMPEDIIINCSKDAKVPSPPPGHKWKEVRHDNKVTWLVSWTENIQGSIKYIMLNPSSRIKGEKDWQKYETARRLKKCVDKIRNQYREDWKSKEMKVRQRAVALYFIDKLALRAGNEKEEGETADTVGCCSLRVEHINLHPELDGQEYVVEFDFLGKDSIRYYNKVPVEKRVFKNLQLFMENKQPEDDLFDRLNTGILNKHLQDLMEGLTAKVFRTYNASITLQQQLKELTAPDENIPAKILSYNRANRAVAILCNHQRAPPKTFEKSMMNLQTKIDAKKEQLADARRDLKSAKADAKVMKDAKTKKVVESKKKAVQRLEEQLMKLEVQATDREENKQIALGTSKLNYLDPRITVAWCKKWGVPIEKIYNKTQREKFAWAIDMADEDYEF
The experiment is described as follows: Inhibition of topoisomerase I mediated relaxation of pBR322 DNA. The class given is biochemical.

Counter-ions that a name gives are not always drawn.

For `CC(C)[C@H](N)C(=O)NC1CCC(Nc2cccc3c2C(=O)c2ccccc2C3=O)CC1` (stereo partly drawn) [Example 36, (2S)-2-amino-N-{4-[(9,10-dioxoanthryl)amino]cyclohexyl}-3-methylbutanamide trifluoroacetate salt], the 50% inhibitory concentration (IC50) (commonly the concentration that gives 50% inhibition) with MAC 15A cells stood at 4.5 µM. As for `C[C@H](N)C(=O)NC1CCCCC1Nc1cccc2c1C(=O)c1ccccc1C2=O.O=C(O)C(F)(F)F` (stereo partly drawn) [Example 66, (2S)-2-amino-N-{2-[(9,10-dioxoanthryl)amino]cyclohexyl}propanamide trifluoroacetate salt], the “DNA-topoisomerase activity: inhibition of topo I relaxation” value (“DNA-topoisomerase activity: inhibition” for short) is given as “COMPLETE inhibition at 10 μM; concentrations” at topo I (at 10 μM) and “above this value antagonised inhibitory activity” at topo I (concentrations above 10 μM). For the same molecule, in the experiment on MAC 15A cells, the IC50 is 6.7 µM. On to `O=C1c2ccccc2C(=O)c2c1cccc2N1CCC[C@H]1C(=O)O` [Example 6, (2S)-1-(9,10-dioxoanthryl)prrolidine-2-carboxylic acid], for which the “DNA-topoisomerase activity: inhibition” value on topo I (at 100 μM) is reported as “PARTIAL inhibition at 100 μM”.

`N[C@H](Cc1ccccc1Cl)C(=O)NC1CCC(Nc2cccc3c2C(=O)c2ccccc2C3=O)CC1` (stereo partly drawn) [Example 46, (2R)-2-amino-N-{4-[(9,10-dioxoanthryl)amino]cyclohexyl}-3-(2-chloro-phenyl)propanamide trifluoroacetate salt] displayed an IC50 in the experiment with MAC 15A cells of 4.1 µM.

For the molecule `O=C1c2ccccc2C(=O)c2c(NC3CCC(NC(=O)[C@@H]4CCCN4)CC3)cccc21` (stereo partly drawn) [Example 40, ((2S)pyrrolidin-2-yl)-N-{4-[(9,10-dioxoanthryl)amino]cyclohexyl}-carboxamide trifluoroacetate salt], the IC50 with MAC 15A cells was 4.2 µM.

With `NCC(=O)Nc1ccc(Nc2cccc3c2C(=O)c2ccccc2C3=O)cc1` [Example 70, 2-amino-N-{4-[(9,10-dioxoanthryl)amino]phenyl}acetamide trifluoroacetate salt], the IC50 with MAC 15A cells amounted to 2.2 µM. Turning to `N[C@@H](Cc1ccccc1Cl)C(=O)NC1CCC(Nc2cccc3c2C(=O)c2ccccc2C3=O)CC1` (stereo partly drawn) [Example 44, (2S)-2-amino-N-{4-[(9,10-dioxoanthryl)amino]cyclohexyl}-3-(2-chlorophenyl)propanamide trifluoroacetate salt], the IC50 with MAC 15A cells came out at 3 µM. `C[C@H](N)C(=O)OC[C@@H]1CCCN1c1cccc2c1C(=O)c1ccccc1C2=O` [Example 13, [(2S)]-1-(9,10-dioxoanthryl)pyrrolidin-2-yl]methyl (2S)-2-aminopropanoate trifluoroacetate salt] returned an IC50 with MAC 15A cells of 22 µM.

For `C[C@H](NC(=O)OC(C)(C)C)C(=O)N1CCN(c2cccc3c2C(=O)c2ccccc2C3=O)CC1` [Example 16, 1-(1-N-tertiarybutoxycarbonyl-L-alanylpiperazinyl)anthracene-9,10-dione], at topo I (between 25-100 μM), the “DNA-topoisomerase activity: inhibition” value is listed as “NO inhibition between 25-100 μM”. For the molecule `C[C@H](N)C(=O)OC1CCN(c2cccc3c2C(=O)c2ccccc2C3=O)CC1.O=C(O)C(F)(F)F` [Example 11, 1-(9,10-dioxoanthryl)-4-piperidyl-(2S)-2-aminopropanoate trifluoroacetate salt], the “DNA-topoisomerase activity: inhibition” value on topo I (between 25-100 μM) is given as “NO inhibition between 25-100 μM”. Further, the IC50 in the experiment with MAC 15A cells is 14 µM. `C[C@H](N)C(=O)NC1CCC(Nc2cccc3c2C(=O)c2ccccc2C3=O)CC1` (stereo partly drawn) [Example 32, (2S)-2-amino-N-{4-[(9,10-dioxoanthryl)amino]cyclohexyl}propanamide trifluoroacetate salt]: it took 4.4 µM to reach half-maximal inhibition in the experiment with MAC 15A cells (IC50). The molecule `NCCCC[C@H](N)C(=O)N1CCN(c2cccc3c2C(=O)c2ccccc2C3=O)CC1` [Example 79, 1-[4-((2S)-2-6-diaminohexanoyl)piperazinyl]anthracene-9,10-dione bis trifluoroacetate salt] had an IC50 in the experiment with MAC 15A cells of 28 µM. Regarding `NCC(=O)NCCCN1CCN(CCCNc2cccc3c2C(=O)c2ccccc2C3=O)CC1.O=C(O)C(F)(F)F.O=C(O)C(F)(F)F.O=C(O)C(F)(F)F` [Example 49, 2-amino-N-[3-(4-{3-[(9,10-dioxoanthryl)amino]propyl}piperazinyl)-propyl]acetamide tri-trifluoroacetate salt], the results for the “DNA-topoisomerase activity: inhibition” value at topo I (at 25 μM) and on topo I (at 50 μM) were “PARTIAL inhibition” and “COMPLETE”, respectively. Take `N[C@@H](Cc1ccc(Cl)cc1)C(=O)NC1CCC(Nc2cccc3c2C(=O)c2ccccc2C3=O)CC1` (stereo partly drawn) [Example 94, (2S)-2-amino-N-{4-[(9,10-dioxoanthryl)amino]cyclohexyl}-3-(4-chlorophenyl)propanamide trifluoroacetate salt]: in the experiment with MAC 15A cells, inhibition was half-maximal at 1 µM (IC50).

For “((2S)pyrrolidine-2-yl)-N-[3-(4-{3-[(9,10-dioxoanthryl)amino]propyl}-piperazinyl)propyl]carboxamide trifluoroacetate salt [Example 57]”, the “DNA-topoisomerase activity: inhibition” value at topo I (at 25 μM) is on record as “PARTIAL inhibition”; at topo I (at 50 μM), “COMPLETE”. Besides, inhibition in the experiment with MAC 15A cells was half-maximal at 4.6 µM (IC50). For the molecule `N[C@@H](Cc1ccc(O)cc1)C(=O)NCCCN1CCN(CCCNc2cccc3c2C(=O)c2ccccc2C3=O)CC1.O=C(O)C(F)(F)F` [Example 63, (2S)-2-amino-N-[3-(4-{3-[(9,10-dioxoanthryl)amino]propyl}-piperazinyl)propyl]-3-(4-hydroxyphenyl)propanamide trifluoroacetate salt], the “DNA-topoisomerase activity: inhibition” value on topo I (at 25 μM) is reported as “PARTIAL inhibition”; at topo I (at 50 μM), “COMPLETE”. As for `NCC(=O)NC1CCC(Nc2cccc3c2C(=O)c2ccccc2C3=O)CC1` (centres unmarked) [Example 30, 2-amino-N-{4-[(9,10-dioxoanthryl)amino]cyclohexyl}acetamide trifluoroacetate salt], in the experiment with MAC 15A cells, it took 6 µM to reach half-maximal inhibition (IC50). `CC(C)[C@H](N)C(=O)NCCCN1CCN(CCCNc2cccc3c2C(=O)c2ccccc2C3=O)CC1.O=C(O)C(F)(F)F` [Example 55, (2S)-2-amino-N-[3-(4-{3-[(9,10-dioxoanthryl)amino]propyl}-piperazinyl)propyl]-3-methylbutanamide trifluoroacetate salt]: the “DNA-topoisomerase activity: inhibition” value is “PARTIAL inhibition” at topo I (at 25 μM) and “COMPLETE” at topo I (at 50 μM). For the molecule `C[C@@H](N)C(=O)NCCCN1CCN(CCCNc2cccc3c2C(=O)c2ccccc2C3=O)CC1` [Example 53, (2R)-2-amino-N-[3-(4-{3-[(9,10-dioxoanthryl)amino]propyl}-piperazinyl)propyl]propanamide trifluoroacetate salt], half-maximal inhibition with MAC 15A cells (IC50) was put at 4.9 µM. On the same count and under the same terms, then `NCCC(=O)NC1CCCCC1Nc1cccc2c1C(=O)c1ccccc1C2=O` (centres unmarked) [Example 68, 3-amino-N-{2-[(9,10-dioxoanthryl)amino]cyclohexyl}propanamide trifluoroacetate salt], with 6.2 µM. `CC(C)[C@@H](N)C(=O)NC1CCC(Nc2cccc3c2C(=O)c2ccccc2C3=O)CC1` (stereo partly drawn) [Example 38, (2R)-2-amino-N-{4-[(9,10-dioxoanthryl)amino]cyclohexyl}-3-methylbutanamide trifluoroacetate salt] showed an IC50 in the experiment with MAC 15A cells of 4.2 µM. For the molecule `N[C@H](Cc1ccccc1)C(=O)NCCCN1CCN(CCCNc2cccc3c2C(=O)c2ccccc2C3=O)CC1` [Example 61, (2R)-2-amino-N-[3-(4-{3-[(9,10-dioxoanthryl)amino]propyl}-piperazinyl)propyl]-3-phenylpropanamide trifluoroacetate salt], in the experiment with MAC 15A cells, half-maximal inhibition (IC50) was put at 3.8 µM. On the same count and under the same terms, then `C[C@H](N)C(=O)N1CCN(c2cccc3c2C(=O)c2cccc(N4CCN(C(=O)[C@H](C)N)CC4)c2C3=O)CC1` [Example 23, 1,5-bis(1-L-alanylpiperazinyl)anthracene-9,10-dione trifluoroacetate salt], with 15 µM; and `C[C@@H](N)C(=O)NC1CCC(Nc2cccc3c2C(=O)c2ccccc2C3=O)CC1` (stereo partly drawn) [Example 34, (2R)-2-amino-N-{4-[(9,10-dioxoanthryl)amino]cyclohexyl}propanamide trifluoroacetate salt], with 3.9 µM.

The values above are taken from patent publication US20030130272A1, “Anthracene derivatives as anti-cancer agents” (priority 1999, published 2003).
